Consider three molecules from PMC4772377, “Structural insights into Cydia pomonella pheromone binding protein 2 mediated prediction of potentially active semiochemicals” (Scientific Reports, 2016).

What is called Kd is the free concentration of one partner at which half of the binding sites on the other are occupied at equilibrium, for simple one-to-one binding.

The target of this test is CpomPBP2 (Cydia pomonella, UniProt I3ZNT9). As to the kind of experiment: Competitive fluorescence binding assay with 1-NPN probe. The settings on record: 2 μM CpomPBP2 and 2 μM 1-NPN, 50 mM Tris-HCl pH 6.8 (text: pH7.0); calculated from IC50; read-out: KD (dissociation constant of competitor).
Sequence of CpomPBP2 (I3ZNT9 26-169 limits assumed): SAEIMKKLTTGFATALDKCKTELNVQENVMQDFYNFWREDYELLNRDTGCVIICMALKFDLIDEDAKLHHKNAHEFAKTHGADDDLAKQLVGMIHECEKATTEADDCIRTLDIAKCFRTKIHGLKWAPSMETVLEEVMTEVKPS
`CCCCCCC/C=C/C=C/C=O` [E,E-2,4-Dodecadienal]: the dissociation constant Kd is 6.99 ± 0.72 µM.
In the case of `CCCCCCOC(=O)CCCCC` [Hexyl Hexanoate] it was 16.2 ± 0.84 µM; in that of `CCC=CCCOC(=O)C(C)CC` (stereo not drawn) [Z-3-Hexenyl-2-Methylbutanoate], 97 ± 2.26 µM.
